#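 48-hour exposure; five concentrations; linearly interpolated endpoints. GI50 = concentration required for 50% inhibition of growth. The concentration for full growth arrest is given as TGI.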
# Tests used:
# Experiment in all cases: inhibition of tumour cell growth, NCI panel, 48 h
# BT-549 breast = test system: BT-549 breast
# T-47D breast = test system: T-47D breast
# DLD-1 colon = test system: DLD-1 colon
# LXFL 529 NSCLC = test system: LXFL 529 NSCLC
# SNB-78 CNS = test system: SNB-78 CNS
# M19-MEL melanoma = test system: M19-MEL melanoma
# MDA-N = test system: MDA-N
SMILES,GI50 (BT-549 breast) [µM],TGI (BT-549 breast) [µM],GI50 (T-47D breast) [µM],TGI (T-47D breast) [µM],TGI (DLD-1 colon) [µM],TGI (LXFL 529 NSCLC) [µM],TGI (SNB-78 CNS) [µM],TGI (M19-MEL melanoma) [µM],GI50 (MDA-N) [µM],TGI (MDA-N) [µM]
CC12OC(C(=O)C13CCC3)C1C(=O)c3ccc4c(ccc5ccccc54)c3C(=O)C12 (centres undefined),18.3,48.4,3.22,11.2,–,–,–,–,–,–
C=Cc1c(C)c2cc3[nH]c(cc4nc(cc5nc(cc1[nH]2)C(C)=C5CCC(=O)N(CC)CC)C(CCC(=O)N(CC)CC)=C4C)c(C)c3C=C,–,–,–,–,> 100,> 100,> 100,> 100,–,–
COc1ccc2nc3cccc([N+](=O)[O-])c3c(NCCNCCN(C)C)c2c1,0.418,1.06,0.168,7.93,–,–,–,–,0.176,0.502
COc1cc(NC(C)CCCNC(C)C)c2ncccc2c1OC (centres undefined),–,–,17,> 100,–,–,–,–,–,–
COc1ccc2[nH]c(C(=O)OCc3ccc4cccc(O)c4n3)cc2c1,1.69,3.74,–,–,–,–,–,–,–,–
CCc1nn2ncccc2c1-c1ccnc(NC2CC2)n1,> 25,> 25,> 25,> 25,–,–,–,–,–,–
CCN(CC)c1ccc(/C=N/NC(=O)CSc2nc3ccccc3c(=O)n2Cc2ccc(S(N)(=O)=O)cc2)c(O)c1,2.68,> 100,0.925,> 100,–,–,–,–,–,–
Nc1ccc(-c2ccc3ncc4ccc(=O)n(-c5cccc(C(F)(F)F)c5)c4c3c2)cn1,< 0.01,0.232,< 0.01,< 0.01,–,–,–,–,–,–
CCn1c(=N)sc2nc3ccccc3n2c1=O,–,–,–,> 100,–,–,–,–,–,> 100
S=C(CSc1ccccc1)Nc1cccc2ccccc12,–,> 100,–,> 100,–,–,–,–,–,> 100
COc1cc(-c2cc3ncccc3c3[nH]c(=O)c4cccnc4c23)cc(OC)c1OC,0.427,55.2,0.789,> 100,–,–,–,–,–,–
O=C(O)Cn1ccc2ccccc21,> 100,> 100,> 100,> 100,–,–,–,–,–,–
COc1ccc2c(c1)O/C(=C\c1cccc(OCC(=O)Nc3nc(C)c(C)s3)c1)C2=O,16.7,55.2,8.76,> 100,–,–,–,–,–,–
NCCOc1ncccc1/C=C1\c2ccccc2-c2ccc([N+](=O)[O-])cc21,0.181,0.994,0.0283,0.305,–,–,–,–,–,–
Cc1cn2c(/C=N/N=C(N)N)c(-c3ccncc3)nc2s1,–,–,16.2,31.6,–,–,–,–,–,–
CC(C)(C)c1nc(-c2cccc(NS(=O)(=O)c3c(F)cccc3F)c2F)c(-c2ccnc(N)n2)s1,37.5,> 72.1,25.9,99,–,–,–,–,–,–
CCOC(=O)C1=C(C(=O)OCC)C2(c3ccccc3)N(O1)c1ccccc1C2(C)C (centres undefined),–,–,–,–,> 100,> 100,> 100,> 100,–,–
Cc1nc(Sc2nc3ccc([N+](=O)[O-])cc3s2)sc1C,0.989,2.85,1.32,6.17,–,–,–,–,–,–
Cc1c(C)c2c(c(C)c1OCC(=O)O)CC[C@@](C)(CCC[C@@H](C)CCC[C@@H](C)CCCC(C)C)O2,71.7,151,51.7,171,–,–,–,–,–,–
Cn1cc(C2=C(c3ccccc3C(F)(F)F)C(=O)NC2=O)c2ccccc21,11,> 25,7.68,> 25,–,–,–,–,–,–
O=C(Nc1ccc2c(c1)OCCO2)C(=O)c1c[nH]c2ccccc12,3.48,38.1,9.86,> 100,–,–,–,–,–,–
COc1ccc(-c2nc(N)c(C#N)c3c2CCOc2c-3ccc3ccccc23)cc1,–,–,22.8,> 100,–,–,–,–,–,–
CC(=O)O[C@H](C[C@H](C(C)C)N(C)C(=O)[C@@H](NC(=O)[C@H]1CCCCN1C)C(C)C)c1cccc(C(=O)N[C@@H](Cc2ccccc2)C[C@H](C)C(=O)O)n1,0.0154,0.48,0.0818,> 25,–,–,–,–,–,–
COc1ccc(-c2nn3ncccc3c2-c2ccnc(Nc3ccc4c(c3)OCCO4)n2)cc1,12.8,> 25,4.58,> 25,–,–,–,–,–,–
Cc1noc(C)c1-c1cnc2c(-c3ccc(C(=O)O)cc3)cn([C@@H](C)c3ccccn3)c2c1,11.8,> 100,0.623,> 100,–,–,–,–,–,–
O=C(CN(/C=C/C(=O)C(F)(F)F)c1ccccc1)c1ccc(Cl)cc1,31.2,91.9,30,> 100,–,–,–,–,–,–
C[C@H](NC(=O)c1c(C(F)F)nn(C)c1Oc1cccc(C(F)(F)F)c1)c1ccc(C(=O)O)cc1,> 100,> 100,> 100,> 100,–,–,–,–,–,–

# Reference: PubChem BioAssay (NCI)
